Measured values published in the kinase profiling compilation of Christmann-Franck et al. (2016).

Legend:
Assay in all cases: KINOMEscan competition binding
Settings in all cases: compound 10.0 µM
[1] = test system: PIK3CA (human), P42336 [E545A]
[2] = test system: KIT (human), P10721 [V559D/T670I]
[3] = test system: PIK3CA (human), P42336 [Q546K]
[4] = test system: EGFR (human), P00533 [746-750 del]
[5] = test system: EGFR (human), P00533 [G719S]
[6] = test system: EGFR (human), P00533 [P753S; 747-752 del]
[7] = test system: PIK3CA (human), P42336 [E545K]
PIK3CA (human), P42336 [E545K], sequence (P42336 whole entry E545K, looked up): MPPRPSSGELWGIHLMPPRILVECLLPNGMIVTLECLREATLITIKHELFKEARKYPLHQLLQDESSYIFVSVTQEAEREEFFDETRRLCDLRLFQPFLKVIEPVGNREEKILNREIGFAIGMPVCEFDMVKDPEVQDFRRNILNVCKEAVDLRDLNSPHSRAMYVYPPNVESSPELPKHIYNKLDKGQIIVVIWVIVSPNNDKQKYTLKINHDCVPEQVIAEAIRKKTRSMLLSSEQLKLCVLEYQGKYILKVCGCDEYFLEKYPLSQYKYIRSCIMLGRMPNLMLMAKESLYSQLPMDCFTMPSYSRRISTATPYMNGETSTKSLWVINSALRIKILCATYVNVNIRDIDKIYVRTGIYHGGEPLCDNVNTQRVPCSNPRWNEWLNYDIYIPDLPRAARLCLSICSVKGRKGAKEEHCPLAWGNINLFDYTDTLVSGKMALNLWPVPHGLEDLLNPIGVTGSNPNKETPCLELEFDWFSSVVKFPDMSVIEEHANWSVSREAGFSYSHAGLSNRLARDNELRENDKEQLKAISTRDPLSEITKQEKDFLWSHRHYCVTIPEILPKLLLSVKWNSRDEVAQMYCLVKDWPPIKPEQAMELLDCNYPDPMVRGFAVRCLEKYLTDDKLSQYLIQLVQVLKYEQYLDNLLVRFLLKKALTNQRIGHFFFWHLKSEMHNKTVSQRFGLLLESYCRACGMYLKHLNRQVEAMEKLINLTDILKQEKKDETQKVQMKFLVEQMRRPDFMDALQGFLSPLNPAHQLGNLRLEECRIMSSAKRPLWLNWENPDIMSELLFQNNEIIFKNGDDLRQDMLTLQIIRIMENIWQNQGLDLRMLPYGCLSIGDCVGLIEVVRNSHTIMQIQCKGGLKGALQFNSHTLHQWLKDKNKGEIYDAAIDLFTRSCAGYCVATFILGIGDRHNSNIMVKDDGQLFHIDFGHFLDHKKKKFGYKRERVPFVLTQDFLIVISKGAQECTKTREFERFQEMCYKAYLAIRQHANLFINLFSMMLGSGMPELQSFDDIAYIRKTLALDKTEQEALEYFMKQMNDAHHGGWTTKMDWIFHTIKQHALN

[8] = test system: EIF2AK4 KD2 (human), Q9P2K8 [S808G]
EIF2AK4 KD2 (human), Q9P2K8 [S808G], sequence (Q9P2K8 whole entry S808G, looked up): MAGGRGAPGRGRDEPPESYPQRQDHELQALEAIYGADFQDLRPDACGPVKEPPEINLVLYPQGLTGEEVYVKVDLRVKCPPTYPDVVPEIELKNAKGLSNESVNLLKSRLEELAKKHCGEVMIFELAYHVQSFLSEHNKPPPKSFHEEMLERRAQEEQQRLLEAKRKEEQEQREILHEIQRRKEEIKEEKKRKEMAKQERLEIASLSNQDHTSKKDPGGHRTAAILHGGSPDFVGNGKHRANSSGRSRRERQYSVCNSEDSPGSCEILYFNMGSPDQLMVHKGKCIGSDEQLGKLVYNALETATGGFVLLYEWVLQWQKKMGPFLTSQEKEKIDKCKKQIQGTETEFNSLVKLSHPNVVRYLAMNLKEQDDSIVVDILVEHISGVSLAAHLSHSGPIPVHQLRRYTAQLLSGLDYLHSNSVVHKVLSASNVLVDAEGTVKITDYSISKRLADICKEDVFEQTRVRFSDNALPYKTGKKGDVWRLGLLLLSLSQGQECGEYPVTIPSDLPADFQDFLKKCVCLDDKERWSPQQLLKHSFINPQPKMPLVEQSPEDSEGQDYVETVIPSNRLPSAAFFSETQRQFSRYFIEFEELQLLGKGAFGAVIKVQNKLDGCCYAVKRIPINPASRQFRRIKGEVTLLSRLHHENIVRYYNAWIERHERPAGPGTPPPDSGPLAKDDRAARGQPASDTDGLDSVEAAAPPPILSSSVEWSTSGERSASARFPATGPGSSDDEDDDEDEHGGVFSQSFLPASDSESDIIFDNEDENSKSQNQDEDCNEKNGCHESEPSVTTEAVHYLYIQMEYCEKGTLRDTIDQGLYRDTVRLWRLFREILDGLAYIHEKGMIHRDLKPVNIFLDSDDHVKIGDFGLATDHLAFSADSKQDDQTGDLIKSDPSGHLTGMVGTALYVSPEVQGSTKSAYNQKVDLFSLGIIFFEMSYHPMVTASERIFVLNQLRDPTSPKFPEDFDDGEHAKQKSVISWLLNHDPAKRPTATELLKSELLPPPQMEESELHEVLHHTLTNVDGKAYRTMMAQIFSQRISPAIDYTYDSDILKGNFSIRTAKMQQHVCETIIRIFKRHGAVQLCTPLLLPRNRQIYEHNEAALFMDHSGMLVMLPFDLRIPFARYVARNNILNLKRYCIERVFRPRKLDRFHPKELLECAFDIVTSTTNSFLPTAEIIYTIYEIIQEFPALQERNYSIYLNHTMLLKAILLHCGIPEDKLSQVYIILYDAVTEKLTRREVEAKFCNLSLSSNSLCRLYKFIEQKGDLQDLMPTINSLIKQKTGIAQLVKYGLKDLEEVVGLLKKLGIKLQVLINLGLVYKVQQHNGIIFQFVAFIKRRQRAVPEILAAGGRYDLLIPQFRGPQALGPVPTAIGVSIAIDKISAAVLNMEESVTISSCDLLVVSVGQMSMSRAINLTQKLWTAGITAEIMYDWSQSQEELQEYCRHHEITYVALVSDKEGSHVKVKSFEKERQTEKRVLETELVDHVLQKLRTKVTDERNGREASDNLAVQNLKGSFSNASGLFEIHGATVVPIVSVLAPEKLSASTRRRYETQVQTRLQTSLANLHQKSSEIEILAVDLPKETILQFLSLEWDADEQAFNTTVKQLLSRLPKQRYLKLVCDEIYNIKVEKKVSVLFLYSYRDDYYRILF

[9] = test system: PIK3CA (human), P42336 [I800L]
PIK3CA (human), P42336 [I800L], sequence (P42336 whole entry I800L, looked up): as the sequence (P42336 whole entry E545K, looked up) above, with K545E, I800L counted along it

[10] = test system: ABL1 (human), P00519 [M351T]
[11] = test system: PIK3CA (human), P42336 [C420R]
PIK3CA (human), P42336 [C420R], sequence (P42336 whole entry C420R, looked up): as the sequence (P42336 whole entry E545K, looked up) above, with C420R, K545E counted along it

[12] = test system: PIK3CA (human), P42336 [H1047Y]
PIK3CA (human), P42336 [H1047Y], sequence (P42336 whole entry H1047Y, looked up): as the sequence (P42336 whole entry E545K, looked up) above, with K545E, H1047Y counted along it

[13] = test system: FLT3 (human), P36888 [K663Q]
[14] = test system: FLT3 (human), P36888 [N841I]
[15] = test system: KIT (human), P10721 [V559D]
KIT (human), P10721 [V559D], sequence (P10721 whole entry V559D, looked up): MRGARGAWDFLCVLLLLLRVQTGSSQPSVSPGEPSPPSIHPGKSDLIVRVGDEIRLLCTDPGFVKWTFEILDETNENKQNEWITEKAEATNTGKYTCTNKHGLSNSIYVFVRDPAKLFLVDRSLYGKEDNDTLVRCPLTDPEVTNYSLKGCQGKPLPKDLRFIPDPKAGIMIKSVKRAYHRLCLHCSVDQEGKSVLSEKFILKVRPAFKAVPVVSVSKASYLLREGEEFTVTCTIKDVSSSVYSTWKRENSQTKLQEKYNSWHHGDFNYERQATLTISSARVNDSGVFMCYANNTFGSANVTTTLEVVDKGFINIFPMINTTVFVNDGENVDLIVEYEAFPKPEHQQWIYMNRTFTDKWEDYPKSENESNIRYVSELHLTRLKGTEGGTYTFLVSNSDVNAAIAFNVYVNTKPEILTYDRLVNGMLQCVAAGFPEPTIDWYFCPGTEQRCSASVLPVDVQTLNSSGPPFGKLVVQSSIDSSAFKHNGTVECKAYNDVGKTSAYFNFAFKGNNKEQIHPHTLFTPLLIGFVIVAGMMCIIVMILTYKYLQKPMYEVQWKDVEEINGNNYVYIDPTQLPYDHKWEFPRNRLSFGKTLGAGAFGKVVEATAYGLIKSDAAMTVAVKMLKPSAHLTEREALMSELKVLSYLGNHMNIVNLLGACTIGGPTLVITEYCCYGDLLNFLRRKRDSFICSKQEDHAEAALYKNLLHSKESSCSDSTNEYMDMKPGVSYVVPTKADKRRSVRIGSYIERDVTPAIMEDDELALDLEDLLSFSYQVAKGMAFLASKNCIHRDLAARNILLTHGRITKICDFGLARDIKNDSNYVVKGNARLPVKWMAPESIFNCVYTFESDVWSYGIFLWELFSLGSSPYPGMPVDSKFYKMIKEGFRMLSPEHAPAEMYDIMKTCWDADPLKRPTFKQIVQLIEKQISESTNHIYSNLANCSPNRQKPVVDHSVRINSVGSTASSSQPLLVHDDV

[16] = test system: EGFR (human), P00533 [L861Q]
[17] = test system: ABL1 (human), P00519 [E255K]
[18] = test system: KIT (human), P10721 [D816V]
KIT (human), P10721 [D816V], sequence (P10721 whole entry D816V, looked up): as the sequence (P10721 whole entry V559D, looked up) above, with D559V, D816V counted along it

[19] = test system: FLT3 (human), P36888 [ITD]

KIT (human), P10721 [V559D/T670I], sequence (P10721 whole entry V559D/T670I, looked up): as the sequence (P10721 whole entry V559D, looked up) above, with T670I counted along it
PIK3CA (human), P42336 [E545A], sequence (P42336 whole entry E545A, looked up): as the sequence (P42336 whole entry E545K, looked up) above, with K545A counted along it
PIK3CA (human), P42336 [Q546K], sequence (P42336 whole entry Q546K, looked up): as the sequence (P42336 whole entry E545K, looked up) above, with K545E, Q546K counted along it

Compound	kinase still bound, per cent of control [1] [%]	kinase still bound, per cent of control [2] [%]	kinase still bound, per cent of control [3] [%]	kinase still bound, per cent of control [4] [%]	kinase still bound, per cent of control [5] [%]	kinase still bound, per cent of control [6] [%]	kinase still bound, per cent of control [7] [%]	kinase still bound, per cent of control [8] [%]	kinase still bound, per cent of control [9] [%]	kinase still bound, per cent of control [10] [%]	kinase still bound, per cent of control [11] [%]	kinase still bound, per cent of control [12] [%]	kinase still bound, per cent of control [13] [%]	kinase still bound, per cent of control [14] [%]	kinase still bound, per cent of control [15] [%]	kinase still bound, per cent of control [16] [%]	kinase still bound, per cent of control [17] [%]	kinase still bound, per cent of control [18] [%]	kinase still bound, per cent of control [19] [%]
COc1ccc(N(C(=O)Oc2c(C)cccc2C)c2ccnc(Nc3ccc(N4CCN(C)CC4)cc3)n2)c(OC)c1	45	48	81	0	0.45	0	100	100	100	1.3	100	94	3.4	0.65	0.25	0.1	0.3	3.4	4.8
COc1cc2ncnc(-n3nc(-c4ccccn4)nc3N)c2cc1OC	18	47	38	50	57	68	40	1.6	2.8	1.2	41	24	21	0.4	3.4	64	0.4	0.15	5.6
O=c1[nH]c2ccccc2n1C1CCN(Cc2ccc(-c3nc4cc5[nH]cnc5cc4nc3-c3ccccc3)cc2)CC1	95	100	80	80	83	73	69	100	51	78	62	100	56	61	100	66	93	79	60
O=C(Nc1cccc(Nc2ncc(Br)c(NCCc3cnc[nH]3)n2)c1)N1CCCC1	94	2.3	46	62	51	63	100	0.7	100	0.5	81	62	0.1	0	0.05	75	0.15	0.15	0
N#Cc1cc(-c2ccnc(Nc3ccc(-n4cnc(-c5cccnc5)n4)cc3)n2)cc(N2CCOCC2)c1	58	4.2	75	67	94	76	100	3.3	64	69	100	100	17	12	1	92	75	5.3	28
CCN1CCN(C(=O)Cc2ccc(Nc3ncc(F)c(Nc4ccc(C(=O)Nc5ccccc5Cl)cc4)n3)cc2)CC1	25	21	23	48	78	38	97	0.4	88	19	57	62	0.4	0	0.5	52	6.2	0.75	0.1
CN(C)C/C=C/C(=O)Nc1ccc(C(=O)Nc2cccc(Nc3nccc(-c4cccnc4)n3)c2)cc1	100	10	100	100	97	96	100	97	60	29	100	100	34	31	0.5	56	29	30	30
CCCS(=O)(=O)Nc1ccc(F)c(C(=O)c2c[nH]c3ncc(Cl)cc23)c1F	92	46	86	93	72	85	100	0.95	91	46	100	90	17	28	0.05	34	46	49	68
